Source: PMC8949533, “Aurasperone A Inhibits SARS CoV-2 In Vitro: An Integrated In Vitro and In Silico Study” (Marine Drugs, 2022)
Like-named read-outs stand apart in the source and are kept apart here.

Experiments:
Assay type in all cases: cell-based
[1] = MTT cytotoxicity assay; conditions: African green monkey
Procedure: (§1) To assess the half maximal cytotoxic concentration (CC50), stock solutions of the test compounds were prepared in 10% DMSO in ddH2O and diluted further to the working solutions with DMEM. The cytotoxic activity of the extracts was tested in Vero E6 cells by using the 3-(4,5-dimethylthiazol-2-yl)-2,5-diphenyltetrazolium bromide (MTT) method with minor modifications. Briefly, the cells were seeded in 96-well plates (100 µL/well at a density of 3 × 10^5 cells/mL) and incubated for 24 h at 37 °C in 5%CO2. After 24 h, cells were treated with various concentrations of the tested compounds in triplicates. 24 h later, the supernatant was discarded, and cell monolayers were washed with sterile 1x phosphate buffer saline (PBS) 3 times and MTT solution (20 µL of 5 mg/mL stock solution) was add to each well and incubated at 37 °C for 4 h followed by medium aspiration. In each well, the formed formazan crystals were dissolved with 200 µL of acidified isopropanol (0.04 M HCl in absolute isopropanol = 0.073 mL HCL in 50 mL isopropanol). Absorbance of formazan solutions was measured at λ max 540 nm with 620 nm as a reference wavelength using a multi-well plate reader. The percentage of cytotoxicity compared to the untreated cells was determined with the following equation.

[2] = test system: SARS-CoV-2 virus (hCoV-19/Egypt/NRC-03/2020); test: microbe, parasite or virus in culture
[3] = test system: Vero E6 cells; test: MTT cytotoxicity assay; conditions: Vero E6 cells, MTT, 24 h treatment
Procedure: as §1

[4] = Vero E6 cells, MTT, 24 h treatment, read-out: CC50
[5] = Vero E6 cells, MTT, 24 h treatment, read-out: CC50 (Figure 2)
[6] = Severe acute respiratory syndrome coronavirus 2, Vero C1008, 72 h, read-out: IC50 against SARS-CoV-2
[7] = Severe acute respiratory syndrome coronavirus 2, Vero C1008, 72 h, read-out: IC50 against SARS-CoV-2 (Figure 2)

Compound | CC50 at 24 h [1, 4] [µM] | CC50 at 24 h [1, 5] [µM] | selectivity index (SI = CC50/IC50) [2] | IC50 [2, 6] [µM] | IC50 [2, 7] [µM] | also measured
COc1cc(OC)c2c(O)c3c(=O)cc(C)oc3c(-c3c(OC)cc4cc5oc(C)cc(=O)c5c(O)c4c3OC)c2c1 [Aurasperone A (3), aurasperone A] | 32400 | 32400 | 2641.5 | 12.2 |  | 
COc1cc(OC)c2c(c1)cc(O)c1c(=O)cc(C)oc12 [Flavasperone (1), flavasperone] |  | 189 |  |  | 204 | 
COc1cc(OC)c2c(O)c3c(=O)cc(C)oc3c(-c3c(OC)cc(OC)c4c(O)c5c(=O)cc(C)oc5cc34)c2c1 [Rubasperone B (6), rubasperone B] |  |  |  |  |  | CC50 at 24 h [1]: 181 µM; IC50 ([2]; Severe acute respiratory syndrome coronavirus 2, Vero C1008, Vero E6 cells infected with hCoV-19/Egypt/NRC-03/2020, 72 h, read-out: IC50 against SARS-CoV-2 (Figure 2)): 105 µM
COc1cc(OC)c2c(O)c3c(=O)cc(C)oc3c(-c3c(OC)cc4cc(O)c5c(=O)cc(C)oc5c4c3OC)c2c1 [Fonsecinone A (4), fonsecinone A] |  | 288 | 4.7 | 61.1 | 61.6 | 
CCC(CC)COC(=O)[C@H](C)N[P@](=O)(OC[C@H]1O[C@@](C#N)(c2ccc3c(N)ncnn23)[C@H](O)[C@@H]1O)Oc1ccccc1 [remdesivir, reference compound] | 415 |  |  |  |  | CC50 [3]: 415 µM; selectivity index (SI = CC50/IC50) ([2]; CC50 in Vero E6 cells / IC50 against SARS-CoV-2): 41.07; IC50 ([2]; Severe acute respiratory syndrome coronavirus 2, Vero C1008, Vero E6 cells infected with hCoV-19/Egypt/NRC-03/2020, 72 h, CPE reduction by 50%, read-out: IC50 against SARS-CoV-2): 10.1 µM
